Our source for the EC50 and IC50 values is patent US20250129070A1, “BIFUNCTIONAL ANDROGEN RECEPTOR COMPOUNDS” (priority 2023, published 2025).

The subject of one assay is AR / CBP ternary complex. Nature of the assay: Ternary complex formation assay (sandwich ELISA, AR capture / CBP detection) in VCaP cell lysates. The class given is cell-based. Conditions: 1.5 hours treatment, sandwich ELISA (AR capture, CBP or p300 detection). The method, boiled down:
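Anti-AR (AR 441)-coated plates capture AR from lysates of VCaP cells grown ≥3 days at 50K/well in 5% charcoal-stripped FBS, dosed with bifunctional for 1.5 h and lysed 30 min at 4 °C. Co-captured CBP/p300 is probed with rabbit mAb and HRP anti-rabbit, then QuantaRed fluorescence (570/585) is read at 0, 5 and 15 min.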
Background: In an ELISA, binding on a coated surface is turned into a signal by an enzyme label.

For a further assay, the system named is VCaP cells. In words: VCaP growth inhibition assay. The class given is cell-based. Conditions: 30 pM R1881, 9 days, CTG. The method, boiled down:
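Growth read by CTG luminescence after 9-day exposure to compound (final 100 nM–10 fM, 1:5 steps) plus 30 pM R1881, in phenol red-free DMEM with 5% CSS. Cells pre-incubated 72 h before dosing; IC50 by nonlinear 4-parameter regression.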

One may read the EC50 as the concentration giving half of the maximal effect. A higher EC50 goes with a less potent agent. The IC50 is the concentration that inhibits the measured activity by half. Low values mean greater potency in that assay, high ones weaker potency in that assay. `CC(=O)N1CCc2c(c(N3CCCc4cc(C#N)c(C(F)F)cc43)nn2C2CCN(CC3CCN(c4ncc(C(=O)NC5C(C)(C)C(Oc6ccc(C#N)c(Cl)c6)C5(C)C)cn4)CC3(C)C)CC2)C1` (stereo not shown) [Compound 450, 2-[4-[[4-[5-acetyl-3-[6-cyano-7-(difluoromethyl)-3,4-dihydro-2H-quinolin-1-yl]-6,7-dihydro-4H-pyrazolo[4,3-c]pyridin-1-yl]-1-piperidyl]methyl]-3,3-dimethyl-1-piperidyl]-N-[3-(3-chloro-4-cyano-phenoxy)-2,2,4,4-tetramethyl-cyclobutyl]pyrimidine-5-carboxamide] returned a concentration giving a half-maximal response (EC50) in the assay with AR / CBP ternary complex of less than 1 nM. This molecule displayed an IC50 with VCaP cells of 0.1 to 1 nM.

The molecule `CC(=O)N1CCc2c(c(N3CCCc4ccccc43)nn2C2CCN(CC3CCN(c4ncc(C(=O)NC5C(C)(C)C(Oc6ccc(C#N)c(Cl)c6)C5(C)C)cn4)CC3)CC2)C1` (stereo not shown) [Compound 158, 2-[4-[[4-[5-acetyl-3-(3,4-dihydro-2H-quinolin-1-yl)-6,7-dihydro-4H-pyrazolo[4,3-c]pyridin-1-yl]-1-piperidyl]methyl]-1-piperidyl]-N-[3-(3-chloro-4-cyano-phenoxy)-2,2,4,4-tetramethyl-cyclobutyl]pyrimidine-5-carboxamide] yielded a concentration for a half-maximal effect (EC50) in the assay with AR / CBP ternary complex of 1 to 10 nM. This molecule also had an IC50 in the assay with VCaP cells not above 0.1 nM.

In the assay with AR / CBP ternary complex, `CC(=O)N1CCc2c(c(N3CCCc4cc(-c5cnn(C)c5)c(C(F)F)cc43)nn2C2CCN(CCC3CCN(c4ncc(C(=O)NC5C(C)(C)C(Oc6ccc(C#N)c(Cl)c6)C5(C)C)cn4)CC3)CC2)C1` (stereo not shown) [Compound 174, 2-[4-[2-[4-[5-acetyl-3-[7-(difluoromethyl)-6-(1-methylpyrazol-4-yl)-3,4-dihydro-2H-quinolin-1-yl]-6,7-dihydro-4H-pyrazolo[4,3-c]pyridin-1-yl]-1-piperidyl]ethyl]-1-piperidyl]-N-[3-(3-chloro-4-cyano-phenoxy)-2,2,4,4-tetramethyl-cyclobutyl]pyrimidine-5-carboxamide] came in with an EC50 of less than 1 nM. Besides, in the assay with VCaP cells, the half-maximal inhibitory concentration (IC50) was not above 0.1 nM.

In turn, `CC(=O)N1CCc2c(c(N3CCCc4cc(-c5cnn(C)c5)c(C(F)F)cc43)nn2C2CCN(Cc3cn(CCc4ncc(C(=O)NC5C(C)(C)C(Oc6ccc(C#N)c(Cl)c6)C5(C)C)cn4)nn3)CC2)C1` (stereo not shown) [Compound 15, 2-[2-[4-[[4-[5-acetyl-3-[7-(difluoromethyl)-6-(1-methylpyrazol-4-yl)-3,4-dihydro-2H-quinolin-1-yl]-6,7-dihydro-4H-pyrazolo[4,3-c]pyridin-1-yl]-1-piperidyl]methyl]triazol-1-yl]ethyl]-N-[3-(3-chloro-4-cyano-phenoxy)-2,2,4,4-tetramethyl-cyclobutyl]pyrimidine-5-carboxamide] gave a 50% effective concentration (EC50) with AR / CBP ternary complex of 10 to 100 nM. In the assay with VCaP cells, this molecule came in with an IC50 of more than 100 nM.

Turning to `CC(=O)N1CCc2c(c(N3CCCc4cc(-c5cnn(C)c5)c(C(F)F)cc43)nn2C2CCN(C3CCC(C#Cc4ncc(C(=O)NC5C(C)(C)C(Oc6ccc(C#N)c(Cl)c6)C5(C)C)cn4)CC3)CC2)C1` (stereo not shown) [Compound 293, 2-[2-[4-[4-[5-acetyl-3-[7-(difluoromethyl)-6-(1-methylpyrazol-4-yl)-3,4-dihydro-2H-quinolin-1-yl]-6,7-dihydro-4H-pyrazolo[4,3-c]pyridin-1-yl]-1-piperidyl]cyclohexyl]ethynyl]-N-[3-(3-chloro-4-cyano-phenoxy)-2,2,4,4-tetramethyl-cyclobutyl]pyrimidine-5-carboxamide], the concentration giving a half-maximal response (EC50) with AR / CBP ternary complex is less than 1 nM. In the assay on VCaP cells, this molecule gave an IC50 of 0.1 to 1 nM.

As for `CC(=O)N1CCc2c(c(N3CCCc4cc(-c5cnn(C)c5)c(C(F)F)cc43)nn2C2CCC(N(C)C3CCN(c4ncc(C(=O)NC5C(C)(C)C(Oc6ccc(C#N)c(Cl)c6)C5(C)C)cn4)CC3)CC2)C1` (stereo not shown) [Compound 284, 2-[4-[[4-[5-acetyl-3-[7-(difluoromethyl)-6-(1-methylpyrazol-4-yl)-3,4-dihydro-2H-quinolin-1-yl]-6,7-dihydro-4H-pyrazolo[4,3-c]pyridin-1-yl]cyclohexyl]-methyl-amino]-1-piperidyl]-N-[3-(3-chloro-4-cyano-phenoxy)-2,2,4,4-tetramethyl-cyclobutyl]pyrimidine-5-carboxamide], the EC50 in the assay on AR / CBP ternary complex was less than 1 nM. The same molecule gave an IC50 in the assay with VCaP cells not above 0.1 nM.

The molecule `CC(=O)N1CCc2c(c(N3CCCc4cc(-c5cnn(C)c5)c(C(F)F)cc43)nn2C2CCC(OC3CCN(c4ncc(C(=O)NC5C(C)(C)C(Oc6ccc(C#N)c(Cl)c6)C5(C)C)cn4)CC3)CC2)C1` (stereo not shown) [Compound 338, 2-[4-[4-[5-acetyl-3-[7-(difluoromethyl)-6-(1-methylpyrazol-4-yl)-3,4-dihydro-2H-quinolin-1-yl]-6,7-dihydro-4H-pyrazolo[4,3-c]pyridin-1-yl]cyclohexoxy]-1-piperidyl]-N-[3-(3-chloro-4-cyano-phenoxy)-2,2,4,4-tetramethyl-cyclobutyl]pyrimidine-5-carboxamide] yielded an EC50 with AR / CBP ternary complex of less than 1 nM. Also, the IC50 in the assay on VCaP cells was in the range of 0.1 to 1 nM.

Consider `CC(=O)N1CCc2c(c(Nc3ccc(-c4cnn(C)c4)cc3F)nn2C2CN(CC3CCN(c4ncc(C(=O)NC5C(C)(C)C(Oc6ccc(C#N)c(Cl)c6)C5(C)C)cn4)CC3)C2)C1` (stereo not shown) [Compound 4, 2-[4-[[3-[5-acetyl-3-[2-fluoro-4-(1-methylpyrazol-4-yl)anilino]-6,7-dihydro-4H-pyrazolo[4,3-c]pyridin-1-yl]azetidin-1-yl]methyl]-1-piperidyl]-N-[3-(3-chloro-4-cyano-phenoxy)-2,2,4,4-tetramethyl-cyclobutyl]pyrimidine-5-carboxamide], for which, in the assay with AR / CBP ternary complex, the EC50 was more than 100 nM. In the assay on VCaP cells, this molecule showed an IC50 of more than 100 nM.

On to `CC(=O)N1CCc2c(c(N3CCCc4ccc(C(F)F)cc43)nn2C2CCN(CC3CCN(c4ncc(C(=O)NC5C(C)(C)C(Oc6ccc(C#N)c(Cl)c6)C5(C)C)cn4)CC3)CC2)C1` (stereo not shown) [Compound 150, 2-[4-[[4-[5-acetyl-3-[7-(difluoromethyl)-3,4-dihydro-2H-quinolin-1-yl]-6,7-dihydro-4H-pyrazolo[4,3-c]pyridin-1-yl]-1-piperidyl]methyl]-1-piperidyl]-N-[3-(3-chloro-4-cyano-phenoxy)-2,2,4,4-tetramethyl-cyclobutyl]pyrimidine-5-carboxamide], for which the half-maximal effective concentration (EC50) in the assay on AR / CBP ternary complex was 1 to 10 nM. In addition, the half-inhibitory concentration (IC50) in the assay with VCaP cells was not above 0.1 nM.

As for `CC(=O)N1CCc2c(c(-c3cccc4cc(-c5cnn(CCC6CC7(C6)CN(c6ncc(C(=O)NC8C(C)(C)C(Oc9ccc(C#N)c(Cl)c9)C8(C)C)cn6)C7)c5)ncc34)nn2C)C1` (stereo not shown) [Compound 226, 2-[6-[2-[4-[8-(5-acetyl-1-methyl-6,7-dihydro-4H-pyrazolo[4,3-c]pyridin-3-yl)-3-isoquinolyl]pyrazol-1-yl]ethyl]-2-azaspiro[3.3]heptan-2-yl]-N-[3-(3-chloro-4-cyano-phenoxy)-2,2,4,4-tetramethyl-cyclobutyl]pyrimidine-5-carboxamide], in the assay with AR / CBP ternary complex, the EC50 is less than 1 nM. Moreover, the IC50 in the assay on VCaP cells is not above 0.1 nM.

Molecule `COc1cc(OC2C(C)(C)C(NC(=O)c3ccc(N4CCC(OC5CCC(n6nc(N7CCCc8cc(-c9cnn(C)c9)c(C(F)F)cc87)c7c6CCN(C(C)=O)C7)CC5)CC4)cc3)C2(C)C)ccc1C#N` (stereo not shown) [Compound 308, 4-[4-[4-[5-acetyl-3-[7-(difluoromethyl)-6-(1-methylpyrazol-4-yl)-3,4-dihydro-2H-quinolin-1-yl]-6,7-dihydro-4H-pyrazolo[4,3-c]pyridin-1-yl]cyclohexoxy]-1-piperidyl]-N-[3-(4-cyano-3-methoxy-phenoxy)-2,2,4,4-tetramethyl-cyclobutyl]benzamide] showed a concentration giving a half-maximal response (EC50) with AR / CBP ternary complex of less than 1 nM. The half-inhibitory concentration (IC50) in the assay with VCaP cells was not above 0.1 nM.

Molecule `CC(=O)N1CCc2c(c(N3CCCc4cc(-c5cnn(C)c5)c(C(F)F)cc43)nn2C2CCN(CC3CCN(c4ncc(C(=O)NC5C(C)(C)C(Oc6ccc(C#N)c(Cl)c6)C5(C)C)cn4)CC34CC4)CC2)C1` (stereo not shown) [Compound 357, 2-[8-[[4-[5-acetyl-3-[7-(difluoromethyl)-6-(1-methylpyrazol-4-yl)-3,4-dihydro-2H-quinolin-1-yl]-6,7-dihydro-4H-pyrazolo[4,3-c]pyridin-1-yl]-1-piperidyl]methyl]-5-azaspiro[2.5]octan-5-yl]-N-[3-(3-chloro-4-cyano-phenoxy)-2,2,4,4-tetramethyl-cyclobutyl]pyrimidine-5-carboxamide] returned an EC50 with AR / CBP ternary complex of less than 1 nM. In the assay on VCaP cells, this molecule yielded an IC50 not above 0.1 nM.

Regarding `COc1cc(OC2C(C)(C)C(NC(=O)c3ccc(N4CC5(CCC(C6CCC(n7nc(N8CCCc9cc(-c%10cnn(C)c%10)c(C(F)F)cc98)c8c7CCN(C(C)=O)C8)CC6)CC5)C4)cc3)C2(C)C)ccc1C#N` (stereo not shown) [Compound 380, 4-[7-[4-[5-acetyl-3-[7-(difluoromethyl)-6-(1-methylpyrazol-4-yl)-3,4-dihydro-2H-quinolin-1-yl]-6,7-dihydro-4Hpyrazolo[4,3-c]pyridin-1-yl]cyclohexyl]-2-azaspiro[3.5]nonan-2-yl]-N-[3-(4-cyano-3-methoxy-phenoxy)-2,2,4,4-tetramethyl-cyclobutyl]benzamide], in the assay on AR / CBP ternary complex, the EC50 fell in the range of 1 to 10 nM. The concentration for half-maximal inhibition (IC50) in the assay with VCaP cells lay in the range of 1 to 100 nM.

Take `COc1cc(OC2C(C)(C)C(NC(=O)c3ccc(OC4CC(N5CCC(n6nc(N7CCCc8cc(-c9cnn(C)c9)c(C(F)F)cc87)c7c6CCN(C(C)=O)C7)CC5)C4)cc3)C2(C)C)ccc1C#N` (stereo not shown) [Compound 375, 4-[3-[4-[5-acetyl-3-[7-(difluoromethyl)-6-(1-methylpyrazol-4-yl)-3,4-dihydro-2H-quinolin-1-yl]-6,7-dihydro-4H-pyrazolo[4,3-c]pyridin-1-yl]-1-piperidyl]cyclobutoxy]-N-[3-(4-cyano-3-methoxy-phenoxy)-2,2,4,4-tetramethyl-cyclobutyl]benzamide]: the concentration for a half-maximal effect (EC50) in the assay with AR / CBP ternary complex was less than 1 nM. The molecule further displayed an IC50 with VCaP cells of 0.1 to 1 nM.
